Laboratory results as given in publication PMC6429214, “Design, Synthesis and Biological Evaluation of Isoxazole-Based CK1 Inhibitors Modified with Chiral Pyrrolidine Scaffolds” (Molecules, 2019).

How the values were obtained:
Assay in all cases: 33PanQinase panel
Type in all cases: biochemical
[1] = target: T1, CK1-epsilon (Homo sapiens, UniProt P49674); details: read-out: Residual Activity (%)
T1 construct: purchased ProQinase
Experimental: (§1) Figure 5 Dendrogram representation of the selectivity profile of 29d at a concentration of 1 μM in a panel of 320 wild-type kinases (ProQinase, Freiburg, Germany). The residual kinase activity was determined compared to DMSO control. Images were generated using TREEspot Software Tool, DISCOVERX CORPORATION 2010. […]
(§2) Table S2. Selectivity profile of compound 29d. The inhibitor has been screened at a concentration of 1 µM over a panel of 320 wild-type protein kinases by ProQinase GmbH (Freiburg, Germany) using an activity-based radiometric 33PanQinase® assay. Results are presented as percentage of residual kinase activity relative to […]
(§3) control. The final DMSO concentration was 1 % in each reaction-mix. Classification of protein kinase families refers to Manning et al. (Manning, G.; Whyte, D. B.; Martinez, R.; Hunter, T.; Sudarsanam, S. The Protein Kinase Complement of the Human Genome. Science 2002, 298, 1912–1934): AGC = containing PKA, PKG, PKC families; […] = containing Cdk, MAPK, GSK3, CLK families; STE = homologs of yeast sterile 7, sterile 11, sterile 20 kinases; TK = tyrosine kinase; TKL = tyrosine kinase-like.
(§4) Kinase name Kinase family Residual Activity (%)

[2] = target: T2, INS-R (Homo sapiens, UniProt P06213); details: read-out: Residual Activity (%)
T2 construct: purchased ProQinase
Experimental: as §1, §2, §3, §4

[3] = target: T3, KIT (Homo sapiens, UniProt P10721); details: read-out: Residual Activity (%)
T3 construct: purchased ProQinase
Experimental: as §1, §2, §3, §4

[4] = target: T4, CK1-delta (Homo sapiens, UniProt P48730); details: read-out: Residual Activity (%)
T4 construct: purchased ProQinase
Experimental: as §1, §2, §3, §4

[5] = target: T5, ERK5 (Homo sapiens, UniProt Q13164); details: ERK5, 1 µM; read-out: Residual Activity (%)
T5 construct: purchased ProQinase
Experimental: as §1, §2, §3, §4

[6] = target: T6, CDC42BPA (Homo sapiens, UniProt Q5VT25); details: read-out: Residual Activity (%)
T6 construct: purchased ProQinase
Experimental: as §1, §2, §3, §4

[7] = target: T7, CK2-alpha1 (Homo sapiens, UniProt P68400); details: CK2-alpha1, 1 µM; read-out: Residual Activity (%)
T7 construct: purchased ProQinase
Experimental: as §1, §2, §3, §4

[8] = target: T8, GRK6 (Homo sapiens, UniProt P43250); details: GRK6, 1 µM; read-out: Residual Activity (%)
T8 construct: purchased ProQinase
Experimental: as §1, §2, §3, §4

[9] = target: T9, PKC-delta (Homo sapiens, UniProt Q05655); details: read-out: Residual Activity (%)
T9 construct: purchased ProQinase
Experimental: as §1, §2, §3, §4

[10] = target: T10, JNK2 (Homo sapiens, UniProt P45984); details: JNK2, 1 µM; read-out: Residual Activity (%)
T10 construct: purchased ProQinase
Experimental: as §1, §2, §3, §4

[11] = target: T11, S6K (Homo sapiens, UniProt P23443); details: read-out: Residual Activity (%)
T11 construct: purchased ProQinase
Experimental: as §1, §2, §3, §4

[12] = target: T12, MEKK2 (Homo sapiens, UniProt Q9Y2U5); details: MEKK2, 1 µM; read-out: Residual Activity (%)
T12 construct: purchased ProQinase
Experimental: as §1, §2, §3, §4

[13] = target: T13, VRK2 (Homo sapiens, UniProt Q86Y07); details: VRK2, 1 µM; read-out: Residual Activity (%)
T13 construct: purchased ProQinase
Experimental: as §1, §2, §3, §4

[14] = target: T14, CK1-gamma2 (Homo sapiens, UniProt P78368); details: CK1-gamma2, 1 µM; read-out: Residual Activity (%)
T14 construct: purchased ProQinase
Experimental: as §1, §2, §3, §4

[15] = target: T15, DAPK3 (Homo sapiens, UniProt O43293); details: DAPK3, 1 µM; read-out: Residual Activity (%)
T15 construct: purchased ProQinase
Experimental: as §1, §2, §3, §4

[16] = target: T16, PIM3 (Homo sapiens, UniProt Q86V86); details: PIM3, 1 µM; read-out: Residual Activity (%)
T16 construct: purchased ProQinase
Experimental: as §1, §2, §3, §4

[17] = target: T17, ABL1 (Homo sapiens, UniProt P00519); details: ABL1, 1 µM; read-out: Residual Activity (%)
T17 construct: purchased ProQinase
Experimental: as §1, §2, §3, §4

[18] = target: T18, p38-gamma (Homo sapiens, UniProt P53778); details: read-out: Residual Activity (%)
T18 construct: purchased ProQinase
Experimental: as §1, §2, §3, §4

[19] = target: T19, ERBB2 (Homo sapiens, UniProt P04626); details: ERBB2, 1 µM; read-out: Residual Activity (%)
T19 construct: purchased ProQinase
Experimental: as §1, §2, §3, §4

[20] = target: T20, ERK1 (Homo sapiens, UniProt P27361); details: ERK1, 1 µM; read-out: Residual Activity (%)
T20 construct: purchased ProQinase
Experimental: as §1, §2, §3, §4

[21] = target: T21, AKT3 aa106-479 (Homo sapiens, UniProt Q9Y243); details: AKT3 aa106-479, 1 µM; read-out: Residual Activity (%)
T21 construct: purchased ProQinase
Experimental: as §1, §2, §3, §4

[22] = target: T22, CDK4/CycD3 (Homo sapiens, UniProt P11802); details: CDK4/CycD3, 1 µM; read-out: Residual Activity (%)
T22 construct: purchased ProQinase
Experimental: as §1, §2, §3, §4

[23] = target: T23, TSK2 (Homo sapiens, UniProt Q96PF2); details: TSK2, 1 µM; read-out: Residual Activity (%)
T23 construct: purchased ProQinase
Experimental: as §1, §2, §3, §4

[24] = target: T24, RET (Homo sapiens, UniProt P07949); details: read-out: Residual Activity (%)
T24 construct: purchased ProQinase
Experimental: as §1, §2, §3, §4

[25] = target: T25, IKK-beta (Homo sapiens, UniProt O14920); details: read-out: Residual Activity (%)
T25 construct: purchased ProQinase
Experimental: as §1, §2, §3, §4

[26] = target: T26, CDK2/CycE1 (Homo sapiens, UniProt P24941); details: CDK2/CycE1, 1 µM; read-out: Residual Activity (%)
T26 construct: purchased ProQinase
Experimental: as §1, §2, §3, §4

[27] = target: T27, EPHA2 (Homo sapiens, UniProt P29317); details: EPHA2, 1 µM; read-out: Residual Activity (%)
T27 construct: purchased ProQinase
Experimental: as §1, §2, §3, §4

[28] = target: T28, BRK (Homo sapiens, UniProt Q13882); details: read-out: Residual Activity (%)
T28 construct: purchased ProQinase
Experimental: as §1, §2, §3, §4

[29] = target: T29, FRK (Homo sapiens, UniProt P42685); details: read-out: Residual Activity (%)
T29 construct: purchased ProQinase
Experimental: as §1, §2, §3, §4

[30] = target: T30, TEC (Homo sapiens, UniProt P42680); details: read-out: Residual Activity (%)
T30 construct: purchased ProQinase
Experimental: as §1, §2, §3, §4

T17 sequence (P00519 whole entry): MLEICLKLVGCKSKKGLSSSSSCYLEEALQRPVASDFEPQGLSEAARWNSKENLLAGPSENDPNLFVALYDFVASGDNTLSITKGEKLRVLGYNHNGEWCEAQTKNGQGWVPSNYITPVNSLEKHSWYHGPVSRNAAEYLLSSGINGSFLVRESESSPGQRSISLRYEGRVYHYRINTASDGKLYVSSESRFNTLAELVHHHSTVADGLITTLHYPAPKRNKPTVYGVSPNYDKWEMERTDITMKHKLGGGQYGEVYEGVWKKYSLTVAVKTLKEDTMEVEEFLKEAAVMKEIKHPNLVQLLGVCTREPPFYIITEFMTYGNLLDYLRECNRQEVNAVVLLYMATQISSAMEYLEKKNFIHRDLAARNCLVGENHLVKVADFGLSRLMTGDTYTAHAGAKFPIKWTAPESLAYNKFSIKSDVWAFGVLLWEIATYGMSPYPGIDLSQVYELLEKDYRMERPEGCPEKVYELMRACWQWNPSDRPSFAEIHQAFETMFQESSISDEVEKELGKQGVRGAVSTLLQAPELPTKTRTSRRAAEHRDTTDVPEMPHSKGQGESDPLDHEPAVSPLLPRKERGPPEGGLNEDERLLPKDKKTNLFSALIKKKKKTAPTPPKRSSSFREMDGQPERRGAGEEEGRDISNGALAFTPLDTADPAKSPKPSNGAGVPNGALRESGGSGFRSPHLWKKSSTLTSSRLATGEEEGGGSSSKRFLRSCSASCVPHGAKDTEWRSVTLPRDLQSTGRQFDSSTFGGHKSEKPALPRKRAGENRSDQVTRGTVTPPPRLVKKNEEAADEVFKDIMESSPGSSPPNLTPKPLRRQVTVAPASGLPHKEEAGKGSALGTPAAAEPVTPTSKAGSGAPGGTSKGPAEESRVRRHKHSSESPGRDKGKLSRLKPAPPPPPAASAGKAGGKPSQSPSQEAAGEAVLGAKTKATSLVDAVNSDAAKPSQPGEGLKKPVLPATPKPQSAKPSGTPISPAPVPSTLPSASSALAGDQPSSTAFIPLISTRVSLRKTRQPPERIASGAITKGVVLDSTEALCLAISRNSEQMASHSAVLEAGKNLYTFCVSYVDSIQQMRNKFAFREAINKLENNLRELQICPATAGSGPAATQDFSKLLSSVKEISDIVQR
T7 sequence (P68400 whole entry): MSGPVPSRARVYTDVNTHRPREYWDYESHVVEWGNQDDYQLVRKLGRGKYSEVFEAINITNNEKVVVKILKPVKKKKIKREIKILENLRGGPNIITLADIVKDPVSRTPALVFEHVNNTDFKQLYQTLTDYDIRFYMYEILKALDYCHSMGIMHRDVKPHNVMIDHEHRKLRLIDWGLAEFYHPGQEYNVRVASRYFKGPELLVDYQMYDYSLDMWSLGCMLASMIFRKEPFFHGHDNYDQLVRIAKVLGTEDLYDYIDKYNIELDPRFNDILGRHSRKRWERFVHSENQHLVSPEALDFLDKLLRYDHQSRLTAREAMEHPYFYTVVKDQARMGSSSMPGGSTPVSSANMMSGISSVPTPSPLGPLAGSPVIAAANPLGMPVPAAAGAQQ
T4 sequence (P48730 whole entry): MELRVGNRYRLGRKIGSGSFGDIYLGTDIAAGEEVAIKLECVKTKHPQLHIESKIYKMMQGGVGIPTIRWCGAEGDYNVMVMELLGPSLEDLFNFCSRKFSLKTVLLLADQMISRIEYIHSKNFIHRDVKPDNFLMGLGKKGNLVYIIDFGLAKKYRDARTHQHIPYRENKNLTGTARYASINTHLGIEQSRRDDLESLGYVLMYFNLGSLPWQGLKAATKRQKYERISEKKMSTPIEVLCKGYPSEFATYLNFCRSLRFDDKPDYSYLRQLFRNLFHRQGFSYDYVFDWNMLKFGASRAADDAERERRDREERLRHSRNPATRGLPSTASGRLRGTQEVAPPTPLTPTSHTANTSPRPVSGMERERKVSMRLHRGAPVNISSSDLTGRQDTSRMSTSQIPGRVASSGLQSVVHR
T12 sequence (Q9Y2U5 whole entry): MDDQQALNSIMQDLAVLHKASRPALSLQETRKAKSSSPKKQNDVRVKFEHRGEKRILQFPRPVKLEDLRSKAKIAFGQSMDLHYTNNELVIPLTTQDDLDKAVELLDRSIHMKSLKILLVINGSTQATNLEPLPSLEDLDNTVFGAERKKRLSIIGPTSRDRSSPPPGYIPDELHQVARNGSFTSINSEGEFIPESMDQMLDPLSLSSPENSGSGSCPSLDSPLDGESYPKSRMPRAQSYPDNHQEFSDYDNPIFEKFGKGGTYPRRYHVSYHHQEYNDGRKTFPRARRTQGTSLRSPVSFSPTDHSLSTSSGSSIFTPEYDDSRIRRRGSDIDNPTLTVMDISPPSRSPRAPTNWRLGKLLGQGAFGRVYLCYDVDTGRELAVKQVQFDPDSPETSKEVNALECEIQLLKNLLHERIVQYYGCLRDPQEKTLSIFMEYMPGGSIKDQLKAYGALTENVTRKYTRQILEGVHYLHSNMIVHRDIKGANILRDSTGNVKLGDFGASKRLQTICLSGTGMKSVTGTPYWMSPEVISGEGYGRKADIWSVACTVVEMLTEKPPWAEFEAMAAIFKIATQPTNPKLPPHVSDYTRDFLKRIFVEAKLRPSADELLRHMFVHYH
T2 sequence (P06213 980-1382 limits assumed): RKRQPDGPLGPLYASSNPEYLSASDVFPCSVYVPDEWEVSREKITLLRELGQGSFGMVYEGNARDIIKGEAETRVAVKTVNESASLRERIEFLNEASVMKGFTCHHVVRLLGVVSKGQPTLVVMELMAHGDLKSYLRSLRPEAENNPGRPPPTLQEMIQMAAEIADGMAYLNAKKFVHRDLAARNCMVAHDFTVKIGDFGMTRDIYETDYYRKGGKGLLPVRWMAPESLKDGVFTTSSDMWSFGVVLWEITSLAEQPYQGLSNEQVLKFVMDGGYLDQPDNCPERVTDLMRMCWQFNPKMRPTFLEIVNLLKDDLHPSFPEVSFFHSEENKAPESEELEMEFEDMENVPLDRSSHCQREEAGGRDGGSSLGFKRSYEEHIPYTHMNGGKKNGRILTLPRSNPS
T24 sequence (P07949 29-1114): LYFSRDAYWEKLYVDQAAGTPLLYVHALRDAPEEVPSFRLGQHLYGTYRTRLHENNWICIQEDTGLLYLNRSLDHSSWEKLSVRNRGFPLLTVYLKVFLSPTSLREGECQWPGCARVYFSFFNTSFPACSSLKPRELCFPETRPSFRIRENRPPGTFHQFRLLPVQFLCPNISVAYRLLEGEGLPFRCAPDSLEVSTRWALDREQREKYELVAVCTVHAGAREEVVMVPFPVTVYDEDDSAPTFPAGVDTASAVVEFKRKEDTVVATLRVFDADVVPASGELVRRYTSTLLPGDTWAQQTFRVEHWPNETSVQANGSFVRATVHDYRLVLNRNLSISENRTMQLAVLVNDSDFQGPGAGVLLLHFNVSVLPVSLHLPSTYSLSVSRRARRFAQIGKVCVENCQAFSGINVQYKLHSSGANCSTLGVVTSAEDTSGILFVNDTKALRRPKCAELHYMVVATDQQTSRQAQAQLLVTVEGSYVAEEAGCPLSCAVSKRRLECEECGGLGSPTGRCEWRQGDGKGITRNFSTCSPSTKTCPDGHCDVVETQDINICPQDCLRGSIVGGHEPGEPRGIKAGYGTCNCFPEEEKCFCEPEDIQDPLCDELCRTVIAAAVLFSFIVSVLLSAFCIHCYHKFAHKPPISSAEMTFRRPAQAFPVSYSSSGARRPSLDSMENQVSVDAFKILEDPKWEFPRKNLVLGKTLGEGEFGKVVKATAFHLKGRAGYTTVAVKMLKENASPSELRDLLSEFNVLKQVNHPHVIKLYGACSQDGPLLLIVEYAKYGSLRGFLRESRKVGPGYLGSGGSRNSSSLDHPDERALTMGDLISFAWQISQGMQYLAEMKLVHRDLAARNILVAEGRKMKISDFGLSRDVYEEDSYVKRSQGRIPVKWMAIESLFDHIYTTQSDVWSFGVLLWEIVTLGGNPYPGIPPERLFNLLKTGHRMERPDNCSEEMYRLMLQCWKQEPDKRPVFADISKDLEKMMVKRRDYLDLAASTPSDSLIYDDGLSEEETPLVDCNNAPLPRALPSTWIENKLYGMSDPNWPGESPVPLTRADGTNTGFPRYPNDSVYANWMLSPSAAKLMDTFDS
T28 sequence (Q13882 whole entry): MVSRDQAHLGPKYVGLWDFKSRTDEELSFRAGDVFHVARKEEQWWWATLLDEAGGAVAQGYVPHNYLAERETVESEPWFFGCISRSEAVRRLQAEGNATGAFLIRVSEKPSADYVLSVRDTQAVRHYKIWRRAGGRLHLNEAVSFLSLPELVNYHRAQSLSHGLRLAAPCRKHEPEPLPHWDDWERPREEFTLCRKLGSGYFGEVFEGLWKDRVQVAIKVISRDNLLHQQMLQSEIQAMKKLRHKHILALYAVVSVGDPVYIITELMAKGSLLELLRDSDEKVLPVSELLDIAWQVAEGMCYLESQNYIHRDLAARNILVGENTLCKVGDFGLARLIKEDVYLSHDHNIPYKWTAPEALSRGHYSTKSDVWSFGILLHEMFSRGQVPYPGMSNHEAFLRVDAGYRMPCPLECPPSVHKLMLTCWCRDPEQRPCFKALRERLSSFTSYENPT

Work on `COc1ccc(-c2cc(C(=O)Nc3cc(-c4c(-c5ccc(F)cc5)noc4C(C)C)ccn3)n(CC3NCC(O)C3O)c2)cc1` (stereo not drawn) [29d] yielded a remaining activity at 1 µM [1] of 4%, a remaining activity at 1 µM [2] of 101% and a remaining activity at 1 µM [3] of 102%. The remaining activity at 1 µM [4] was 1%, the remaining activity at 1 µM [5] was 93% and the remaining activity at 1 µM [6] was 100%. The remaining activity at 1 µM [7] was 103%, the remaining activity at 1 µM [8] was 101% and the remaining activity at 1 µM [9] was 100%. For the same molecule, the remaining activity at 1 µM [10] was 40%, the remaining activity at 1 µM [11] was 102% and the remaining activity at 1 µM [12] was 111%. The remaining activity at 1 µM [13] was 92%, the remaining activity at 1 µM [14] was 80% and the remaining activity at 1 µM [15] was 90%. For the same molecule, the remaining activity at 1 µM [16] was 98%, the remaining activity at 1 µM [17] was 95% and the remaining activity at 1 µM [18] was 99%. It also gave a remaining activity at 1 µM [19] of 121%, a remaining activity at 1 µM [20] of 102% and a remaining activity at 1 µM [21] of 95%. It also gave a remaining activity at 1 µM [22] of 98%, a remaining activity at 1 µM [23] of 99% and a remaining activity at 1 µM [24] of 97%. It also gave a remaining activity at 1 µM [25] of 92%, a remaining activity at 1 µM [26] of 93% and a remaining activity at 1 µM [27] of 103%. It also gave a remaining activity at 1 µM [28] of 131%, a remaining activity at 1 µM [29] of 94% and a remaining activity at 1 µM [30] of 109%.
